Reference: ChEMBL document CHEMBL1275557, “First countrywide survey of acquired metallo-beta-lactamases in gram-negative pathogens in Italy” (2008)
In brackets after ≈: the same amount, converted by molar mass.

Experiments:
Type in all cases: functional
Pseudomonas aeruginosa [1] = assay: Antibacterial activity against IMP-13 producing Pseudomonas aeruginosa clone C1 isolate AV-13X-28 by Etest method in presence of Tazobactam
Pseudomonas aeruginosa [2] = assay: Antibacterial activity against IMP-13 producing Pseudomonas aeruginosa clone C2 isolate NA-14X-02 by Etest method in presence of Tazobactam
Pseudomonas aeruginosa [3] = assay: Antibacterial activity against IMP-13 producing Pseudomonas aeruginosa clone C2 isolate NA-14X-10 by Etest method in presence of Tazobactam
Enterobacter cloacae [4] = assay: Antibacterial activity against VIM-1 producing Enterobacter cloacae isolate TO-16X-51 by Etest method
Pseudomonas putida [5] = assay: Antibacterial activity against VIM-1 producing Pseudomonas putida isolate RM-11X-11 by Etest method
Pseudomonas aeruginosa [6] = assay: Antibacterial activity against VIM-1 producing Pseudomonas aeruginosa clone A1 isolate FG-17X-14 by Etest method
Pseudomonas aeruginosa [7] = assay: Antibacterial activity against VIM-1 producing Pseudomonas aeruginosa clone A2 isolate NA-14X-21 by Etest method
Pseudomonas aeruginosa [8] = assay: Antibacterial activity against VIM-1 producing Pseudomonas aeruginosa clone A2 isolate NA-14X-26 by Etest method
Pseudomonas aeruginosa [9] = assay: Antibacterial activity against VIM-1 producing Pseudomonas aeruginosa clone A2 isolate NA-14X-32 by Etest method
Pseudomonas aeruginosa [10] = assay: Antibacterial activity against VIM-1 producing Pseudomonas aeruginosa clone A3 isolate NA-14X-34 by Etest method
Pseudomonas aeruginosa [11] = assay: Antibacterial activity against VIM-1 producing Pseudomonas aeruginosa clone A3 isolate FG-17X-08 by Etest method
Pseudomonas aeruginosa [12] = assay: Antibacterial activity against VIM-1 producing Pseudomonas aeruginosa clone D isolate VA-06X-69 by Etest method
Pseudomonas aeruginosa [13] = assay: Antibacterial activity against VIM-1 producing Pseudomonas aeruginosa clone D1 isolate VA-06X-63 by Etest method
Pseudomonas aeruginosa [14] = assay: Antibacterial activity against VIM-1 producing Pseudomonas aeruginosa clone D2 isolate VA-06X-16 by Etest method
Pseudomonas aeruginosa [15] = assay: Antibacterial activity against VIM-1 producing Pseudomonas aeruginosa clone D2 isolate VA-06X-17 by Etest method
Pseudomonas aeruginosa [16] = assay: Antibacterial activity against VIM-1 producing Pseudomonas aeruginosa clone D3 isolate VA-06X-65 by Etest method
Pseudomonas aeruginosa [17] = assay: Antibacterial activity against VIM-1 producing Pseudomonas aeruginosa clone D4 isolate VA-06X-47 by Etest method
Pseudomonas aeruginosa [18] = assay: Antibacterial activity against VIM-1 producing Pseudomonas aeruginosa clone E isolate VA-06X-29 by Etest method
Pseudomonas aeruginosa [19] = assay: Antibacterial activity against VIM-1 producing Pseudomonas aeruginosa clone F isolate RM-11X-09 by Etest method
Pseudomonas aeruginosa [20] = assay: Antibacterial activity against VIM-1 producing Pseudomonas aeruginosa clone G isolate NA-14X-13 by Etest method
Pseudomonas aeruginosa [21] = assay: Antibacterial activity against VIM-2 producing Pseudomonas aeruginosa clone B1 isolate SS-09X-45 by Etest method
Pseudomonas aeruginosa [22] = assay: Antibacterial activity against VIM-2 producing Pseudomonas aeruginosa clone B2 isolate VA-06X-20 by Etest method
Pseudomonas aeruginosa [23] = assay: Antibacterial activity against VIM-2 producing Pseudomonas aeruginosa clone B2 isolate VA-06X-28 by Etest method
Pseudomonas aeruginosa [24] = assay: Antibacterial activity against VIM-2 producing Pseudomonas aeruginosa clone B2 isolate VA-06X-38 by Etest method
Pseudomonas aeruginosa [25] = assay: Antibacterial activity against VIM-2 producing Pseudomonas aeruginosa clone B3 isolate CR-04X-14 by Etest method
Pseudomonas aeruginosa [26] = assay: Antibacterial activity against VIM-2 producing Pseudomonas aeruginosa clone B3 isolate PV-05X-02 by Etest method
Pseudomonas aeruginosa [27] = assay: Antibacterial activity against VIM-2 producing Pseudomonas aeruginosa clone B3 isolate PV-05X-07 by Etest method
Pseudomonas aeruginosa [28] = assay: Antibacterial activity against IMP-13 producing Pseudomonas aeruginosa clone C1 isolate AV-13X-28 by Etest method
Pseudomonas aeruginosa [29] = assay: Antibacterial activity against IMP-13 producing Pseudomonas aeruginosa clone C2 isolate NA-14X-02 by Etest method
Pseudomonas aeruginosa [30] = assay: Antibacterial activity against IMP-13 producing Pseudomonas aeruginosa clone C2 isolate NA-14X-10 by Etest method
Pseudomonas aeruginosa [31] = assay: Antibacterial activity against IMP-13 producing Pseudomonas aeruginosa clone C2 isolate NA-14X-11 by Etest method
Pseudomonas aeruginosa [32] = assay: Antibacterial activity against IMP-13 producing Pseudomonas aeruginosa clone C2 isolate NA-14X-12 by Etest method
Pseudomonas aeruginosa [33] = assay: Antibacterial activity against IMP-13 producing Pseudomonas aeruginosa clone C3 isolate PG-12X-03 by Etest method
Enterobacter cloacae [34] = assay: Antibacterial activity against VIM-1 producing Enterobacter cloacae isolate TO-16X-51 by Etest method in presence of Tazobactam
Pseudomonas putida [35] = assay: Antibacterial activity against VIM-1 producing Pseudomonas putida isolate RM-11X-11 by Etest method in presence of Tazobactam
Pseudomonas aeruginosa [36] = assay: Antibacterial activity against VIM-1 producing Pseudomonas aeruginosa clone A1 isolate FG-17X-14 by Etest method in presence of Tazobactam
Pseudomonas aeruginosa [37] = assay: Antibacterial activity against VIM-1 producing Pseudomonas aeruginosa clone A2 isolate NA-14X-21 by Etest method in presence of Tazobactam
Pseudomonas aeruginosa [38] = assay: Antibacterial activity against VIM-1 producing Pseudomonas aeruginosa clone A2 isolate NA-14X-26 by Etest method in presence of Tazobactam
Pseudomonas aeruginosa [39] = assay: Antibacterial activity against VIM-1 producing Pseudomonas aeruginosa clone A2 isolate NA-14X-32 by Etest method in presence of Tazobactam
Pseudomonas aeruginosa [40] = assay: Antibacterial activity against VIM-1 producing Pseudomonas aeruginosa clone A3 isolate NA-14X-34 by Etest method in presence of Tazobactam
Pseudomonas aeruginosa [41] = assay: Antibacterial activity against VIM-1 producing Pseudomonas aeruginosa clone A3 isolate FG-17X-08 by Etest method in presence of Tazobactam
Pseudomonas aeruginosa [42] = assay: Antibacterial activity against VIM-1 producing Pseudomonas aeruginosa clone D isolate VA-06X-69 by Etest method in presence of Tazobactam
Pseudomonas aeruginosa [43] = assay: Antibacterial activity against VIM-1 producing Pseudomonas aeruginosa clone D1 isolate VA-06X-63 by Etest method in presence of Tazobactam
Pseudomonas aeruginosa [44] = assay: Antibacterial activity against VIM-1 producing Pseudomonas aeruginosa clone D2 isolate VA-06X-16 by Etest method in presence of Tazobactam
Pseudomonas aeruginosa [45] = assay: Antibacterial activity against VIM-1 producing Pseudomonas aeruginosa clone D2 isolate VA-06X-17 by Etest method in presence of Tazobactam
Pseudomonas aeruginosa [46] = assay: Antibacterial activity against VIM-1 producing Pseudomonas aeruginosa clone D3 isolate VA-06X-65 by Etest method in presence of Tazobactam
Pseudomonas aeruginosa [47] = assay: Antibacterial activity against VIM-1 producing Pseudomonas aeruginosa clone D4 isolate VA-06X-47 by Etest method in presence of Tazobactam
Pseudomonas aeruginosa [48] = assay: Antibacterial activity against VIM-1 producing Pseudomonas aeruginosa clone E isolate VA-06X-29 by Etest method in presence of Tazobactam
Pseudomonas aeruginosa [49] = assay: Antibacterial activity against VIM-1 producing Pseudomonas aeruginosa clone F isolate RM-11X-09 by Etest method in presence of Tazobactam
Pseudomonas aeruginosa [50] = assay: Antibacterial activity against VIM-1 producing Pseudomonas aeruginosa clone G isolate NA-14X-13 by Etest method in presence of Tazobactam
Pseudomonas aeruginosa [51] = assay: Antibacterial activity against VIM-2 producing Pseudomonas aeruginosa clone B1 isolate SS-09X-45 by Etest method in presence of Tazobactam
Pseudomonas aeruginosa [52] = assay: Antibacterial activity against VIM-2 producing Pseudomonas aeruginosa clone B2 isolate VA-06X-20 by Etest method in presence of Tazobactam
Pseudomonas aeruginosa [53] = assay: Antibacterial activity against VIM-2 producing Pseudomonas aeruginosa clone B2 isolate VA-06X-28 by Etest method in presence of Tazobactam
Pseudomonas aeruginosa [54] = assay: Antibacterial activity against VIM-2 producing Pseudomonas aeruginosa clone B2 isolate VA-06X-38 by Etest method in presence of Tazobactam
Pseudomonas aeruginosa [55] = assay: Antibacterial activity against VIM-2 producing Pseudomonas aeruginosa clone B3 isolate CR-04X-14 by Etest method in presence of Tazobactam
Pseudomonas aeruginosa [56] = assay: Antibacterial activity against VIM-2 producing Pseudomonas aeruginosa clone B3 isolate PV-05X-02 by Etest method in presence of Tazobactam
Pseudomonas aeruginosa [57] = assay: Antibacterial activity against VIM-2 producing Pseudomonas aeruginosa clone B3 isolate PV-05X-07 by Etest method in presence of Tazobactam
Pseudomonas aeruginosa [58] = assay: Antibacterial activity against IMP-13 producing Pseudomonas aeruginosa clone C2 isolate NA-14X-11 by Etest method in presence of Tazobactam
Pseudomonas aeruginosa [59] = assay: Antibacterial activity against IMP-13 producing Pseudomonas aeruginosa clone C2 isolate NA-14X-12 by Etest method in presence of Tazobactam
Pseudomonas aeruginosa [60] = assay: Antibacterial activity against IMP-13 producing Pseudomonas aeruginosa clone C3 isolate PG-12X-03 by Etest method in presence of Tazobactam
Pseudomonas aeruginosa [61] = assay: Antibacterial activity against metallo-beta-lactamase positive Pseudomonas aeruginosa assessed as percent susceptible isolates by Etest method in presence of Tazobactam

`CCN1CCN(C(=O)N[C@@H](C(=O)N[C@@H]2C(=O)N3[C@@H]2SC(C)(C)[C@@H]3C(=O)O)c2ccccc2)C(=O)C1=O` [PIPERACILLIN] gave an MIC (Pseudomonas aeruginosa [1]) of 16 µg/mL, an MIC (Pseudomonas aeruginosa [2]) of 16 µg/mL and an MIC (Pseudomonas aeruginosa [3]) of 16 µg/mL. The MIC (Enterobacter cloacae [4]) was > 128 µg/mL, the MIC (Pseudomonas putida [5]) was > 128 µg/mL and the MIC (Pseudomonas aeruginosa [6]) was > 128 µg/mL. For the same compound, the MIC (Pseudomonas aeruginosa [7]) was > 128 µg/mL, the MIC (Pseudomonas aeruginosa [8]) was > 128 µg/mL and the MIC (Pseudomonas aeruginosa [9]) was > 128 µg/mL. For the same compound, the MIC (Pseudomonas aeruginosa [10]) was > 128 µg/mL, the MIC (Pseudomonas aeruginosa [11]) was > 128 µg/mL and the MIC (Pseudomonas aeruginosa [12]) was > 128 µg/mL. For the same compound, the MIC (Pseudomonas aeruginosa [13]) was > 128 µg/mL, the MIC (Pseudomonas aeruginosa [14]) was > 128 µg/mL and the MIC (Pseudomonas aeruginosa [15]) was > 128 µg/mL. The MIC (Pseudomonas aeruginosa [16]) was > 128 µg/mL, the MIC (Pseudomonas aeruginosa [17]) was > 128 µg/mL and the MIC (Pseudomonas aeruginosa [18]) was > 128 µg/mL. For the same compound, the MIC (Pseudomonas aeruginosa [19]) was > 128 µg/mL, the MIC (Pseudomonas aeruginosa [20]) was > 128 µg/mL and the MIC (Pseudomonas aeruginosa [21]) was > 128 µg/mL. It also gave an MIC (Pseudomonas aeruginosa [22]) of 64 µg/mL (≈ 124 µM), an MIC (Pseudomonas aeruginosa [23]) of 64 µg/mL (≈ 124 µM) and an MIC (Pseudomonas aeruginosa [24]) of 32 µg/mL (≈ 61.8 µM). For the same compound, the MIC (Pseudomonas aeruginosa [25]) was > 128 µg/mL, the MIC (Pseudomonas aeruginosa [26]) was 48 µg/mL (≈ 92.7 µM) and the MIC (Pseudomonas aeruginosa [27]) was 48 µg/mL (≈ 92.7 µM). The MIC (Pseudomonas aeruginosa [28]) was 24 µg/mL (≈ 46.4 µM), the MIC (Pseudomonas aeruginosa [29]) was 24 µg/mL (≈ 46.4 µM) and the MIC (Pseudomonas aeruginosa [30]) was 16 µg/mL (≈ 30.9 µM). For the same compound, the MIC (Pseudomonas aeruginosa [31]) was 16 µg/mL (≈ 30.9 µM), the MIC (Pseudomonas aeruginosa [32]) was 16 µg/mL (≈ 30.9 µM) and the MIC (Pseudomonas aeruginosa [33]) was 16 µg/mL (≈ 30.9 µM). The MIC (Enterobacter cloacae [34]) was > 128 µg/mL, the MIC (Pseudomonas putida [35]) was > 128 µg/mL and the MIC (Pseudomonas aeruginosa [36]) was > 128 µg/mL. The MIC (Pseudomonas aeruginosa [37]) was > 128 µg/mL, the MIC (Pseudomonas aeruginosa [38]) was > 128 µg/mL and the MIC (Pseudomonas aeruginosa [39]) was > 128 µg/mL. The MIC (Pseudomonas aeruginosa [40]) was > 128 µg/mL, the MIC (Pseudomonas aeruginosa [41]) was > 128 µg/mL and the MIC (Pseudomonas aeruginosa [42]) was > 128 µg/mL. The MIC (Pseudomonas aeruginosa [43]) was > 128 µg/mL, the MIC (Pseudomonas aeruginosa [44]) was > 128 µg/mL and the MIC (Pseudomonas aeruginosa [45]) was > 128 µg/mL. For the same compound, the MIC (Pseudomonas aeruginosa [46]) was > 128 µg/mL, the MIC (Pseudomonas aeruginosa [47]) was > 128 µg/mL and the MIC (Pseudomonas aeruginosa [48]) was > 128 µg/mL. For the same compound, the MIC (Pseudomonas aeruginosa [49]) was > 128 µg/mL, the MIC (Pseudomonas aeruginosa [50]) was > 128 µg/mL and the MIC (Pseudomonas aeruginosa [51]) was > 128 µg/mL. The MIC (Pseudomonas aeruginosa [52]) was 48 µg/mL, the MIC (Pseudomonas aeruginosa [53]) was 48 µg/mL and the MIC (Pseudomonas aeruginosa [54]) was 32 µg/mL. For the same compound, the MIC (Pseudomonas aeruginosa [55]) was > 128 µg/mL, the MIC (Pseudomonas aeruginosa [56]) was 32 µg/mL and the MIC (Pseudomonas aeruginosa [57]) was 32 µg/mL. The MIC (Pseudomonas aeruginosa [58]) was 16 µg/mL, the MIC (Pseudomonas aeruginosa [59]) was 16 µg/mL and the MIC (Pseudomonas aeruginosa [60]) was 16 µg/mL. It also gave an Activity (Pseudomonas aeruginosa [61]) of 39%.
